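A five-concentration, 48-hour dose response in 96-well plates underlies each endpoint, interpolated linearly between surrounding concentrations. At the TGI there is no net growth.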 Where a SMILES comes first, the peptide text is derived from it. The star is where a group is joined. Boc = CC(C)(C)OC(=O)*
Tests used:
Assay in all cases: NCI anticancer screen, dose series, 48 h
BT-549 breast = test system: BT-549 breast
NCI/ADR-RES ovarian = test system: NCI/ADR-RES ovarian
MDA-MB-435 = test system: MDA-MB-435
MDA-MB-231 breast = test system: MDA-MB-231 breast
HS 578T breast = test system: HS 578T breast
T-47D breast = test system: T-47D breast

SMILES | TGI (BT-549 breast) [µM] | TGI (NCI/ADR-RES ovarian) [µM] | TGI (MDA-MB-435) [µM] | TGI (MDA-MB-231 breast) [µM] | TGI (HS 578T breast) [µM] | TGI (T-47D breast) [µM]
O=C(CCc1cccc(O)c1)NCCc1cccc(OCc2ccccc2)c1 | 32.5 | 41.2 | 29.6 | 40.7 | 40.3 | 55
FC(F)(F)C1(C(F)(F)F)C2CCC3(CC(F)(F)C(F)(F)S3)C1C2 (configuration not stated) |  | > 100 | > 100 | > 100 | > 100 | > 100
COc1ccc2[nH]c3c(C)c4cnccc4c(C)c3c2c1 | > 10 | 6.94 | 2.84 | 6.77 | > 10 | > 10
CCOC(=O)C(Cc1cn(S(=O)(=O)c2ccc(C)cc2)cn1)P(=O)(OCC)OCC (configuration not stated) | > 100 | > 100 | > 100 | > 100 | > 100 | > 100
Cc1cc(C)c(NS(=O)c2cccc([N+](=O)[O-])c2)c(C)c1 (configuration not stated) | > 100 | > 100 | > 100 |  |  | > 100
O=c1c2ncn(CCCl)c2n(-c2ccccc2)c(=S)n1-c1ccccc1 | > 100 | > 100 | > 100 | > 100 | > 100 | > 100
NC(N)=NS(=O)(=O)c1ccc(NNc2c3ccccc3nc3c(C(=O)Nc4ccc(S(N)(=O)=O)cc4)cccc23)cc1 | 70.2 | > 100 | > 100 | > 100 | 88 | > 100
O=C(O)c1cc(N(Cc2ccccc2O)Cc2cc(O)ccc2O)ccc1O | > 100 | > 100 | > 100 | > 100 | > 100 | > 100
O=C(NNC(=O)c1ccccc1Cl)c1ccccc1O | > 100 | > 100 | > 100 | > 100 | > 100 | > 100
c1ccc2c3nnc(c2c1)SCCSCCCSCCS3 |  | > 100 | > 100 | 86.1 | > 100 | > 100
COC(=O)c1ccc(NCc2cc(O)ccc2O)cc1O | 14.2 | 10.8 | 23.2 | 25.7 | > 68.1 | 37.5
Oc1[nH]c2ccccc2c1N=NC(=S)N1CCCC1 | 22.8 | 6.03 | 29.5 | 55.7 | > 72.9 | 85.1
CC1(C)O[C@@H](CP(c2ccccc2)c2ccccc2)[C@H](CP(c2ccccc2)c2ccccc2)O1 | 9.02 | 36 | 52.4 | 31.9 |  | 29.8
O=[N+]([O-])c1ccc(N2N=C(c3ccc4ccccc4c3O)CC2c2ccc(Cl)cc2Cl)c([N+](=O)[O-])c1 (configuration not stated) | > 100 | > 100 | > 100 | > 100 | 95.3 | > 100
CC(=O)O/C=C\OC1CCCC1 |  | > 100 | > 100 | > 100 | > 100 | > 100
O=C(/C=C/c1ccc(F)c(F)c1)OCCc1ccccc1 | > 100 | > 100 | > 100 | > 100 | > 100 | > 100
COC(=O)CNC(=O)Nc1cc(N2C(=O)ON3C2C(C)(C)N(O)C3(C)C)ccc1C (configuration not stated) | > 100 | > 100 | > 100 | > 100 | > 100 | > 100
CC(OCc1ccccc1)C(NC(=O)C1CSSCC(NC(=O)C(Cc2ccccc2)NC(=O)OCc2ccccc2)C(=O)NC(Cc2ccccc2)C(=O)NC(Cc2cn(C=O)c3ccccc23)C(=O)NC(CCCCNC(=O)OCc2ccccc2)C(=O)NC(C(C)OCc2ccccc2)C(=O)N1)C(N)=O (configuration not stated) | > 66.5 | > 100 | > 100 | 37.3 | > 100 | > 63.8
COc1ccc(-n2c(=O)n(C)c(=O)n2-c2c(C)c(C)c(C)c(C)c2C)cc1 | > 100 | > 100 | > 100 | > 100 | > 100 | > 100
Cc1cc(C)c2c(c1)C(=O)C1(C2)Cc2c(ccc(C)c2C)C1=O (configuration not stated) | > 100 | > 100 | > 100 | > 100 | > 100 | > 100
CN(C)/C=N/S(=O)(=O)c1nn2c(C=O)c(-c3ccc([N+](=O)[O-])cc3)nc2s1 | 25.5 | > 100 | 50.4 | > 81.5 | > 71.8 | > 45.4
COc1ccccc1OC(=O)/C=C/c1ccccc1 | > 100 | > 100 | > 100 | > 100 | > 100 | > 100

SMILES | TGI (BT-549 breast) [µM] | TGI (NCI/ADR-RES ovarian) [µM] | TGI (MDA-MB-435) [µM] | TGI (MDA-MB-231 breast) [µM] | TGI (HS 578T breast) [µM] | TGI (T-47D breast) [µM]
N#CC(c1ccccc1)N(CCc1ccccc1)C(=O)Oc1ccccc1 (configuration not stated) | > 100 | > 100 | > 100 | > 100 | > 100 | > 100
O=C1/C(=C\c2c(-c3ccccc3)nn(-c3ccccc3)c2O)C(c2ccccc2)=NN1c1ccccc1 |  | > 100 | > 100 | > 100 | > 100 | > 100
CCOC(=O)CCC(NC(=O)c1ccc(Oc2nc3ccccc3nc2C(=O)OCC)cc1)C(=O)OCC (configuration not stated) | > 100 | > 100 | > 100 | 95.9 | > 100 | > 100
COc1ccc2c(c1)c1c3c(ccc4ncn2c43)N(CCN(C)C)CCN=1 |  | 1.96 | 1.76 | 1.76 | 3.16 | 6.05
O=c1cc(-c2ccccc2Cl)[nH]c2cc3c(cc12)OCO3 |  | 0.0698 | 0.0313 | 0.982 | 4.06 | > 100
N#CC(c1ccccc1)(c1ccccc1)[C@@H](c1ccccc1)[C@H](Cc1ccccc1)NS(=O)(=O)c1ccccc1 | > 100 | > 100 | > 100 | > 100 | > 100 | > 100
CC1(C)S[C@@H]2[C@H](NC(=O)/C=C/c3ccccc3)C(=O)N2[C@H]1C(=O)O | > 100 | > 100 | > 100 | > 100 | > 100 | > 100
NC(=O)C(=CN1CC(=O)NC1=S)C(N)=O | > 100 | > 100 | > 100 | > 100 |  | > 100
CCOC(=O)C(CC(C)C)NC(=O)C(Cc1ccccc1)NC(=O)CNC(=O)OC(C)(C)C (stereo not drawn) (Boc-Gly-Phe-Leu-OEt; configuration not given here) | 50.9 | > 100 | 34.4 |  | 96 | 61
CCOC(=O)CCc1c(C)[nH]c2c(C)c3c([nH]c4ccc(Cl)cc43)c(C)c2c1=O | 40.3 | 54 | > 100 | 34.2 | 77.5 | 54.3
CCCCCCCCCC(=O)CC(=O)c1c(O)cc(O)cc1O |  | 38.6 | 39.1 | > 75 | 44.9 | > 75
CN(NC(=O)c1cccs1)C1=NCCN1 | > 100 | > 100 | > 100 | > 100 | > 100 | > 100
CN(CC#N)C(=O)Cc1ccc([N+](=O)[O-])cc1 | > 10 | > 10 | > 10 | > 10 | > 10 | > 10
CCOC(=O)CC(N1CC1)N1CC1 |  | > 10 | > 10 | > 10 | > 10 | > 10
CC1OC(OC2C(O[C@@H]3C[C@@H]4CC[C@@H]5[C@H](CC[C@]6(C)[C@@H]7[C@H](C[C@@H]56)O[C@]5(CC[C@@H](C)CO5)[C@H]7C)[C@@]4(C)C[C@H]3O)OC(CO)C(OC3OC(CO)C(O)C(O)C3O)C2O)C(O)C(O)C1O (some centres not stated) | 4.44 | 3.88 | 3.16 | 3.39 | 4.38 | 11.2
CC1CC(NN(C)C)C2(C(N)=O)C(N)=NC(=O)C12C#N (configuration not stated) |  | > 100 | > 100 | > 100 | > 100 | > 100
COc1ccc(Nc2nc3ccccc3nc2C(=O)O)cc1 | > 100 | > 100 | > 100 | > 100 | 85.9 | > 100
CNC(=O)OCCN1c2ccccc2Sc2ccccc21 | > 100 | > 100 | > 100 | 89.5 | > 100 | > 100
COc1nc2c(c(=O)n1C)NC(C(O)C(O)CO)C=N2 (configuration not stated) | > 10 | > 10 | > 10 | > 10 | > 10 | > 10
Cc1cc2c(=O)[nH]nc(N)c2c(N)n1 | > 100 | > 100 | > 100 | > 100 | > 100 | > 100
COC(=O)/C(=C\C(=O)c1ccc(Br)cc1)NN=C(c1ccccc1)c1ccccc1 |  |  | > 10 | > 10 |  | > 10
c1ccc2nc3cc4c(cc3nc2c1)NC12CCCCC1CC1=C(CCCC1)N42 (configuration not stated) | 4.72 | > 10 | 3.9 | > 10 | 8.04 | > 10
